Data published in patent US20200199127A1, “(HETERO)ARYLALKYLAMINO-PYRAZOLOPYRIDAZINE DERIVATIVES HAVING MULTIMODAL ACTIVITY AGAINST PAIN” (priority 2017, published 2020).

Assays:
[1] = target: Human norepinephrine transporter (NET) (Homo sapiens, UniProt P23975); test: Binding assay to human norepinephrine transporter (NET), [3H]-Nisoxetin; settings: human NET enriched membranes, 5 nM [3H]-Nisoxetin; Ki as class symbol
Protocol: Binding Assay to Human Norepinephrine Transporter (NET).
Human norepinephrine transporter (NET) enriched membranes (5 μg) were incubated with 5 nM of radiolabeled [3H]-Nisoxetin in assay buffer containing 50 mM Tris-HCl, 120 mM NaCl, 5 mM KCl, pH 7.4.
NSB (non specific binding) was measured by adding 10 μM of desipramine. The binding of the test compound was measured at five different concentrations.. After 60 min incubation at 4° C., binding reaction was terminated by filtering through Multiscreen GF/C (Millipore) presoaked in 0.5% polyethyleneimine in Vacuum Manifold Station, followed by 3 washes with ice-cold filtration buffer containing 50 mM Tris-HCl, 0.9% NaCl, pH 7.4.
Filter plates were dried at 60° C. for 1 hour and 30 μl of scintillation cocktail were added to each well before radioactivity reading.

[2] = target: Human α2δ-1 subunit of Cav2.2 calcium channel (Homo sapiens, UniProt P54289); test: Human α2δ-1 subunit of Cav2.2 calcium channel assay, [3H]-Gabapentin binding; settings: human α2δ-1 enriched membranes, 15 nM [3H]-Gabapentin; Ki as class symbol
Chain of Human α2δ-1 subunit of Cav2.2 calcium channel (P54289 25-1103): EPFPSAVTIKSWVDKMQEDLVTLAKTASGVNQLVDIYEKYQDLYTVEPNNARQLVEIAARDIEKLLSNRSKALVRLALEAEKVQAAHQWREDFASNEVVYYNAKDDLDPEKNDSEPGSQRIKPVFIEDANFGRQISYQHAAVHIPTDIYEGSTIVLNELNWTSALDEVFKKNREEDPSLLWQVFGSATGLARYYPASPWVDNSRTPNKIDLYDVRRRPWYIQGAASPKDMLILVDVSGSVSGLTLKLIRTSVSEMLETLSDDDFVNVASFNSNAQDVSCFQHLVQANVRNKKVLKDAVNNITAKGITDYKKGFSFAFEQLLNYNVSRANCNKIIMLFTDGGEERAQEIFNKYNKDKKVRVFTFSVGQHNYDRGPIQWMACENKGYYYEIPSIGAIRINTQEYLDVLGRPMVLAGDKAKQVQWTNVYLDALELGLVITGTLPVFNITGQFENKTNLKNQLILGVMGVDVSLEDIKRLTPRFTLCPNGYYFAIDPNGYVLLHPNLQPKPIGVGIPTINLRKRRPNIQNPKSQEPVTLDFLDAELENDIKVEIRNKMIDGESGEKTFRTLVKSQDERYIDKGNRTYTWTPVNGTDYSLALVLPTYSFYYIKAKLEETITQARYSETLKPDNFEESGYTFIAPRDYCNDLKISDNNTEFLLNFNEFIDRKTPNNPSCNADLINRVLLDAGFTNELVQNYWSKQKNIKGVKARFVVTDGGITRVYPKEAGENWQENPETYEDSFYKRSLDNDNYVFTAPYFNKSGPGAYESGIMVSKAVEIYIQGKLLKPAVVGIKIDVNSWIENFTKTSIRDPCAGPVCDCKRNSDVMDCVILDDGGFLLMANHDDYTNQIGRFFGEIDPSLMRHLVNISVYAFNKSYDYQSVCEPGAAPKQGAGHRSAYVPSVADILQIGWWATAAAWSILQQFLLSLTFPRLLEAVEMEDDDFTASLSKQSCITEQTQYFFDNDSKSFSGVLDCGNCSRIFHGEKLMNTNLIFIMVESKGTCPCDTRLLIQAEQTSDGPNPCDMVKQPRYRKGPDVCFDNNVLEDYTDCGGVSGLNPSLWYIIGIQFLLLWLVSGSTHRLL
Protocol: Human α2δ-1 Subunit of Cav2.2 Calcium Channel Assay
Human α2δ-1 enriched membranes (2.5 μg) were incubated with 15 nM of radiolabeled [3H]-Gabapentin in assay buffer containing Hepes-KOH 10 mM, pH 7.4. NSB (non specific binding) was measured by adding 10 μM pregabalin. The binding of the test compound was measured at five different concentrations. After 60 min incubation at 27° C., binding reaction was terminated by filtering through Multiscreen GF/C (Millipore) presoaked in 0.5% polyethyleneimine in Vacuum Manifold Station, followed by 3 washes with ice-cold filtration buffer containing 50 mM Tris-HCl, pH 7.4. Filter plates were dried at 60° C. for 1 hour and 30 μl of scintillation cocktail were added to each well before radioactivity reading. Readings were performed in a Trilux 1450 Microbeta radioactive counter (Perkin Elmer).

Chain of Human norepinephrine transporter (NET) (P23975 whole entry): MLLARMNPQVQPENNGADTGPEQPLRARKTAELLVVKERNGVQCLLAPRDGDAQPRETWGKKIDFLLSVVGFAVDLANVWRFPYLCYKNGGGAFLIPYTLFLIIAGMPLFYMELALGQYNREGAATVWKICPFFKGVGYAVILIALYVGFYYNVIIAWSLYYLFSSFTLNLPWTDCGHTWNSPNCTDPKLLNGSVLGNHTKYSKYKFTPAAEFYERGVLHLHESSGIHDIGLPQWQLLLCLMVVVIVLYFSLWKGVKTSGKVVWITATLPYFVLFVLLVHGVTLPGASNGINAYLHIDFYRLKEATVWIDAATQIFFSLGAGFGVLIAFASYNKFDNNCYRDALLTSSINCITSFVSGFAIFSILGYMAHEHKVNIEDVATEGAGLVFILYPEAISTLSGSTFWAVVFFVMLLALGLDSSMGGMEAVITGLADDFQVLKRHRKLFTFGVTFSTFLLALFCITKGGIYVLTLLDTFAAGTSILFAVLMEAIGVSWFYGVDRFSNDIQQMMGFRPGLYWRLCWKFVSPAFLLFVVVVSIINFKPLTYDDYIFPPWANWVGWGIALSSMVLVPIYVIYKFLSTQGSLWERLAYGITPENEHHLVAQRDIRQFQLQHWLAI

Row | Structure (SMILES) | Ki [1] | Ki [2]
1 | CCOc1ccc(-n2nc3c(N(C)Cc4cccc(C)n4)nnc(C)c3c2C)c(F)c1 [Example 1, 2-(4-Ethoxy-2-fluorophenyl)-N,3,4-trimethyl-N-((6-methylpyridin-2-yl)methyl)-2H-pyrazolo[3,4-d]pyridazin-7-amine] | 500 to 1000 nM | 100 to 500 nM
2 | CCOc1ccc(-n2nc3c(N(C)CCC(O)c4ccccc4)nnc(C)c3c2C)c(F)c1 (stereo not shown) [Example 2, 3-((2-(4-ethoxy-2-fluorophenyl)-3,4-dimethyl-2H-pyrazolo[3,4-d]pyridazin-7-yl)(methyl)amino)-1-phenylpropan-1-ol] | < 100 nM | –
3 | CCOc1ccc(-n2nc3c(N(C)CCc4ccccc4)nnc(C)c3c2C)c(F)c1 [Example 3, 2-(4-ethoxy-2-fluorophenyl)-N,3,4-trimethyl-N-phenethyl-2H-pyrazolo[3,4-d]pyridazin-7-amine] | 100 to 500 nM | 100 to 500 nM
4 | CCOc1ccc(-n2nc3c(N(C)CCCc4ccccc4)nnc(C)c3c2C)c(F)c1 [Example 4, 2-(4-ethoxy-2-fluorophenyl)-N,3,4-trimethyl-N-(3-phenylpropyl)-2H-pyrazolo[3,4-d]pyridazin-7-amine] | 100 to 500 nM | 100 to 500 nM
5 | CCOc1ccc(-n2nc3c(N(C)CC(O)c4ccccc4)nnc(C)c3c2C)c(F)c1 (stereo not shown) [Example 5, 2-((2-(4-ethoxy-2-fluorophenyl)-3,4-dimethyl-2H-pyrazolo[3,4-d]pyridazin-7-yl)(methyl)amino)-1-phenylethanol] | > 1000 nM | 100 to 500 nM
6 | CCOc1ccc(-n2nc3c(N(C)Cc4ccccc4)nnc(C)c3c2C)c(F)c1 [Example 6, N-benzyl-2-(4-ethoxy-2-fluorophenyl)-N,3,4-trimethyl-2H-pyrazolo[3,4-d]pyridazin-7-amine] | < 100 nM | –
7 | CCOc1ccc(-n2nc3c(NCCC(O)c4ccccc4)nnc(C)c3c2C)c(F)c1 (stereo not shown) [Example 7, 3-((2-(4-ethoxy-2-fluorophenyl)-3,4-dimethyl-2H-pyrazolo[3,4-d]pyridazin-7-yl)amino)-1-phenylpropan-1-ol] | 100 to 500 nM | 100 to 500 nM
8 | CCOc1ccc(-n2nc3c(NC(CCO)c4ccccc4)nnc(C)c3c2C)c(F)c1 (stereo not shown) [Example 8, 3-((2-(4-ethoxy-2-fluorophenyl)-3,4-dimethyl-2H-pyrazolo[3,4-d]pyridazin-7-yl)amino)-3-phenylpropan-1-ol] | > 1000 nM | 100 to 500 nM
9 | CCOc1ccc(-n2nc3c(N(C)Cc4ccccn4)nnc(C)c3c2C)c(F)c1 [Example 9, 2-(4-ethoxy-2-fluorophenyl)-N,3,4-trimethyl-N-(pyridin-2-ylmethyl)-2H-pyrazolo[3,4-d]pyridazin-7-amine] | 500 to 1000 nM | 100 to 500 nM
10 | CCOc1ccc(-n2nc3c(N(C)Cc4cccnc4)nnc(C)c3c2C)c(F)c1 [Example 10, 2-(4-ethoxy-2-fluorophenyl)-N,3,4-trimethyl-N-(pyridin-3-ylmethyl)-2H-pyrazolo[3,4-d]pyridazin-7-amine] | 500 to 1000 nM | 100 to 500 nM
11 | CCOc1ccc(-n2nc3c(N(C)Cc4ccncc4)nnc(C)c3c2C)c(F)c1 [Example 11, 2-(4-ethoxy-2-fluorophenyl)-N,3,4-trimethyl-N-(pyridin-4-ylmethyl)-2H-pyrazolo[3,4-d]pyridazin-7-amine] | > 1000 nM | 100 to 500 nM
12 | CCOc1ccc(-n2nc3c(NCC(CO)Cc4ccccc4)nnc(C)c3c2C)c(F)c1 (stereo not shown) [Example 12, 2-benzyl-3-((2-(4-ethoxy-2-fluorophenyl)-3,4-dimethyl-2H-pyrazolo[3,4-d]pyridazin-7-yl)amino)propan-1-ol] | 100 to 500 nM | 100 to 500 nM
13 | CCOc1ccc(-n2nc3c(NCc4ccccc4)nnc(C)c3c2C)c(F)c1 [Example 13, N-benzyl-2-(4-ethoxy-2-fluorophenyl)-3,4-dimethyl-2H-pyrazolo[3,4-d]pyridazin-7-amine] | 500 to 1000 nM | 100 to 500 nM
14 | CCOc1ccc(-n2nc3c(NCc4ccccn4)nnc(C)c3c2C)c(F)c1 [Example 14, 2-(4-ethoxy-2-fluorophenyl)-3,4-dimethyl-N-(pyridin-2-ylmethyl)-2H-pyrazolo[3,4-d]pyridazin-7-amine] | > 1000 nM | 100 to 500 nM
15 | CCOc1ccc(-n2nc3c(NCCc4ccccn4)nnc(C)c3c2C)c(F)c1 [Example 15, 2-(4-ethoxy-2-fluorophenyl)-3,4-dimethyl-N-(2-(pyridin-2-yl)ethyl)-2H-pyrazolo[3,4-d]pyridazin-7-amine] | > 1000 nM | 100 to 500 nM
16 | CCOc1ccc(-n2nc3c(N(C)CCc4ccccn4)nnc(C)c3c2C)c(F)c1 [Example 16, 2-(4-ethoxy-2-fluorophenyl)-N,3,4-trimethyl-N-(2-(pyridin-2-yl)ethyl)-2H-pyrazolo[3,4-d]pyridazin-7-amine] | > 1000 nM | 100 to 500 nM
17 | CCOc1ccc(-n2nc3c(N(C)Cc4cccc(O)c4)nnc(C)c3c2C)c(F)c1 [Example 17, 3-(((2-(4-ethoxy-2-fluorophenyl)-3,4-dimethyl-2H-pyrazolo[3,4-d]pyridazin-7-yl)(methyl)amino)methyl)phenol] | 100 to 500 nM | –
18 | CCOc1ccc(-n2nc3c(N(C)Cc4ccc(O)cc4)nnc(C)c3c2C)c(F)c1 [Example 18, 4-(((2-(4-ethoxy-2-fluorophenyl)-3,4-dimethyl-2H-pyrazolo[3,4-d]pyridazin-7-yl)(methyl)amino)methyl)phenol] | < 100 nM | –
19 | CCOc1ccc(-n2nc3c(NCC(O)Cc4ccccc4)nnc(C)c3c2C)c(F)c1 (stereo not shown) [Example 19, 1-((2-(4-ethoxy-2-fluorophenyl)-3,4-dimethyl-2H-pyrazolo[3,4-d]pyridazin-7-yl)amino)-3-phenylpropan-2-ol] | > 1000 nM | 100 to 500 nM
20 | CCOc1ccc(-n2nc3c(NCc4ncccc4C(F)(F)F)nnc(C)c3c2C)c(F)c1 [Example 20, 2-(4-ethoxy-2-fluorophenyl)-3,4-dimethyl-N-((3-(trifluoromethyl)pyridin-2-yl)methyl)-2H-pyrazolo[3,4-d]pyridazin-7-amine] | > 1000 nM | 100 to 500 nM
21 | CCOc1ccc(-n2nc3c(N(C)Cc4ccc(OC)cn4)nnc(C)c3c2C)c(F)c1 [Example 38, 2-(4-ethoxy-2-fluorophenyl)-N-((5-methoxypyridin-2-yl)methyl)-N,3,4-trimethyl-2H-pyrazolo[3,4-d]pyridazin-7-amine] | 100 to 500 nM | –
22 | CCOc1ccc(-n2nc3c(N(C)Cc4ccccc4CO)nnc(C)c3c2C)c(F)c1 [Example 41, (2-(((2-(4-ethoxy-2-fluorophenyl)-3,4-dimethyl-2H-pyrazolo[3,4-d]pyridazin-7-yl)(methyl)amino)methyl)phenyl)meth-anol] | 100 to 500 nM | –
23 | Cc1nnc(N(C)Cc2ccccn2)c2nn(-c3ccc(Cl)cc3OC(F)(F)F)c(C)c12 [Example 42, 2-(4-chloro-2-(trifluoromethoxy)phenyl)-N,3,4-trimethyl-N-(pyridin-2-ylmethyl)-2H-pyrazolo[3,4-d]pyridazin-7-amine] | > 1000 nM | –
24 | CCOc1ccc(-n2nc3c(N(C)Cc4cc(C)ccn4)nnc(C)c3c2C)c(F)c1 [Example 44, 2-(4-ethoxy-2-fluorophenyl)-N,3,4-trimethyl-N-((4-methylpyridin-2-yl)methyl)-2H-pyrazolo[3,4-d]pyridazin-7-amine] | 500 to 1000 nM | –
25 | CCOc1ccc(-n2nc3c(N(C)Cc4ccccn4)nnc(C)c3c2C)cc1 [Example 46, 2-(4-ethoxyphenyl)-N,3,4-trimethyl-N-(pyridin-2-ylmethyl)-2H-pyrazolo[3,4-d]pyridazin-7-amine] | 500 to 1000 nM | –
26 | CCOc1ccc(-n2nc3c(N(C)CC[C@H](O)c4ccccc4)nnc(C)c3c2C)c(F)c1 [Example 49, (S)-3-((2-(4-Ethoxy-2-fluorophenyl)-3,4-dimethyl-2H-pyrazolo[3,4-d]pyridazin-7-yl)(methyl)amino)-1-phenylpropan-1-ol] | < 100 nM | –
27 | CCOc1ccc(-n2nc3c(N(C)CC[C@@H](O)c4ccccc4)nnc(C)c3c2C)c(F)c1 [Example 50, (R)-3-((2-(4-ethoxy-2-fluorophenyl)-3,4-dimethyl-2H-pyrazolo[3,4-d]pyridazin-7-yl)(methyl)amino)-1-phenylpropan-1-ol] | 100 to 500 nM | –
28 | CCOc1ccc(-n2nc3c(NCC[C@@H](O)c4ccccc4)nnc(C)c3c2C)c(F)c1 [Example 51, (R)-3-((2-(4-Ethoxy-2-fluorophenyl)-3,4-dimethyl-2H-pyrazolo[3,4-d]pyridazin-7-yl)amino)-1-phenylpropan-1-ol] | > 1000 nM | –
29 | CCOc1ccc(-n2nc3c(NCC[C@H](O)c4ccccc4)nnc(C)c3c2C)c(F)c1 [Example 52, (S)-3-((2-(4-ethoxy-2-fluorophenyl)-3,4-dimethyl-2H-pyrazolo[3,4-d]pyridazin-7-yl)amino)-1-phenylpropan-1-ol] | 100 to 500 nM | –
30 | CCOc1ccc(-n2nc3c(N(CCO)Cc4ccccc4)nnc(C)c3c2C)c(F)c1 [Example 55, 2-(benzyl(2-(4-ethoxy-2-fluorophenyl)-3,4-dimethyl-2H-pyrazolo[3,4-d]pyridazin-7-yl)amino)ethanol] | 500 to 1000 nM | –
